For one experiment, the system named is C. albicans [DSM 1665]. Details: method as in doi:10.1002/ejoc.202001661. The note with it: highest tested concentration 250 µg/mL; cited from earlier work.
Experiment [1] concerns C. albicans CAI-4 HWP1-lacZ [ZK3379]. The experiment in a line: MIC assay, C. albicans CAI-4 HWP1-lacZ. The note with it: tested 250–2 µg/mL. Format: cell-based, Candida albicans. The protocol:
(§1) The MICs of rubiginosin- and rutilin-type azaphilones—in detail, Rub A, C, W, Z, and Rut A and B—were determined as described previously using the selected pathogens C. albicans [DSM 11225, DSM 1665], C. albicans CAI-4 HWP1-lacZ [ZK3379] and C. auris [DSM 21092] (see Table S1 for detailed information). All compounds were tested within the concentration range of 250 µg/mL–2 µg/mL for C. albicans [DSM 11225, DSM 1665], C. albicans CAI-4 HWP1-lacZ [ZK3379], C. auris [DSM 21092]. […]
(§2) All compounds were fully dissolved in
(§3) The assay was conducted as a minimum inhibitory concentration (MIC) assay in 96-well round-bottom microtiter plates using the parameters summarized in table S1 and as already described in [2]. Stocks of the test organisms were generated by growing the organisms overnight in 250 mL (Candida albicans [DSM 11225], [DSM 1665], CAI-4 HWP1-lacZ, Candida auris [DSM 21092]) or 50 mL shaking (the rest organisms) flasks filled with 25 mL of the growth medium at 140 rpm (for media and temperatures see table S1). After incubation overnight, the OD of the suspension was measured and adjusted by diluting with the respective growth medium. OD600 nm was adjusted to 0.01 for bacteria and OD600 nm to 0.1 for fungi and 150 μL of the adjusted suspensions were added to all wells of a 96-well microtiter plate (one test organism per plate). Subsequently, additional 130 μL (1 mg/mL tested compounds) or 142.5 μL (10 mg/mL tested compounds ) of suspensions, plus 20 μL (1 mg/mL tested compounds) respectively 7.5 μL (10 mg/mL tested compounds ) of the test compounds were added to first row. C ontrols (one compound/column) were added as well: MeOH were used as solvent control, while different positive controls (reference drugs ) were used for the according test organisms (see table S1). Starting from row A, 150 μL of the suspension were transferred […]
(§4) to the next row, the contents thoroughly mixed, and 150 μL transferred to the following row. The remaining 150 μL after row H were discarded.
(§5) 66.7 μg/mL in row A to 0.52 μg/mL in row H (1 mg/mL tested compounds) or 250 μg/mL in row A to 2 μg/mL in row H (10 mg/mL tested compounds).
(§6) The 96-well microtiter plates were then incubated overnight on a microplate shaker at 800 rpm at 30 or 37 °C (see table S1) and were visually evaluated the next day. The MIC is defined as the lowest concentration where no growth of the test organism was observed. A lower MIC thus corresponds to a higher antimicrobial activity […]
(§7) Table S1: MIC assay experiment parameters.
(§8) Tested organisms Strain No. Growth Incubation Positive control medium temp. [°C ] (reference)
(§9) KB-3-1 (ACC 158) cervix carcinoma as well as L929 (ACC 2) mouse fibroblasts were cultured under standard cell culture conditions (37 °C, 5% CO2, 95% humidified atmosphere). The cells were maintained in high glucose DMEM containing 10% fetal bovine serum and 100 U/mL penicillin and streptomycin (Gibco, Thermo Fisher Scientific, Waltham, USA). Cell lines were serially passaged after trypsinization, using 0.05% trypsin / 0.02% EDTA solution. The cultures were routinely monitored for potential contamination, and only mycoplasma free cultures were used. The test compounds were investigated for their anti-proliferative effect on cell lines, using the 3-(4,5-dimethylthiazol-2-yl)-2,5-diphenyltetrazolium bromide (MTT) based cell viability assay. […]

A further experiment deals with C. albicans [DSM 11225]. The experiment in a line: MIC assay, C. albicans DSM 11225. The format is cell-based, Candida albicans. The note with it: tested 250–2 µg/mL. The procedure:
as §1, §2, §3, §4, §5, §6, §7, §8, §9

For a further experiment, the system named is C. auris [DSM 21092]. The experiment can be described thus: MIC assay, C. auris. Format: cell-based, Candida auris. The note with it: tested 250–2 µg/mL. The procedure:
as §1, §2, §3, §4, §5, §6, §7, §8, §9

A further experiment relates to C. auris biofilm. The experiment can be described thus: Crystal violet biofilm formation assay, C. auris. Format: cell-based, Candida auris. To be noted: for effect on formation of C. auris biofilms: CV assay, 24 h treatment. The protocol:
The fungal pathogens C. auris [[…]] or C. albicans [DSM 11225] were cultured from stock in 25 mL YPD medium in a 250 mL flask (30 °C, 100 rpm, 18 h). The turbidity of the broth was measured at 280 nm using a spectrophotometer (Nanodrop 2000c, Thermo Fisher Scientific, Waltham, MA, USA) and diluted to match the turbidity of a 0.5 McFarland standard in RPMI 1640 medium (Gibco, New York, NY, USA; Thermo Fisher Scientific), supplemented with […] 3-(N-morpholino)propanesulfonic acid (MOPS, Carl Roth, Karlsruhe, Germany) for C. auris, or 0.05 McFarland standard in RPMI 1640 medium in the case of C. albicans. Subsequently, 150 μL of the fungal dispersion were added into each well of a 96-well microtiter plate (Falcon no. 351172, Thermo Fisher Scientific) and further incubated (37 °C, 150 rpm, 2 h [C. auris] or 90 min [C. albicans]). The supernatant was discarded and the plate was rinsed one time by using a PBS buffer. Afterwards, azaphilones (Rub A, C, W, Z, and Rut A and B) were serially diluted in 150 μL in fresh medium to concentrations of 250–2 μg/mL (Rub C for C. auris: 250–0.02 μg/mL). Methanol (2.5%) was used as a solvent control and both, nystatin (NYS; Thermo Fisher Scientific) and farnesol (FA; Sigma Aldrich, St. Louis, MO, USA) as positive controls (250–2 μg/mL) for C. auris and C. albicans, respectively. Plates were further incubated (37 °C, 150 rpm, 24 h). The supernatant was discarded and biofilms were washed with PBS, stained by adding 150 μL of the crystal violet (CV; Sigma Aldrich) solution (0.1%), and incubated (room temperature, 25 min). Afterwards, the plates were washed twice with PBS buffer. A total of 150 μL ethanol (95%) were applied to dissolve the biofilm-bound CV. The absorbance was measured by a plate reader (Synergy 2, BioTek, Santa Clara, CA, USA) at 570 nm for C. auris or 610 nm for C. albicans. Error bars indicate SD with duplicates in two biological repeats.

In brackets after ≈: the same amount, converted by molar mass.

For orientation: MIC means the smallest concentration in the dilution series that meets the test's criterion for growth inhibition. Regarding `CC(=O)OC/C=C/C1=CC2=C(CO1)C(=O)[C@@](C)(OC(=O)c1c(C)cc(O)cc1O)C(=O)/C2=C\C=C\C1=CC2=C(CO1)C(=O)[C@@](C)(O)[C@@H](OC(=O)c1c(C)cc(O)cc1O)C2` [Rut A, rutilin A], the MIC entry (in the experiment on C. albicans [DSM 1665]; in experiment [1]; against C. albicans [DSM 11225]; against C. auris [DSM 21092]) was “no antimicrobial activity” throughout. For the same molecule, the “effect on formation of C. auris biofilms” value in the experiment on C. auris biofilm is given as “did not affect the formation”.
For the molecule `C[C@@H]1[C@H](O)[C@@H](C)/C=C/C=C/CC/C=C/C=C/C=C/C=C/C(O[C@H]2O[C@H](C)[C@@H](O)[C@H](N)[C@@H]2O)CC2O[C@](O)(CC(O)C(O)CCC(O)CC(O)CC(O)CC(=O)O[C@H]1C)CC(O)C2C(=O)O` (stereo partly shown) [Nystatin, nystatin], the minimal inhibitory concentration (MIC) in the experiment on C. albicans [DSM 1665] is 8.3 µg/mL (≈ 8.96 µM); in experiment [1] it was 8.3 µg/mL (≈ 8.96 µM); against C. albicans [DSM 11225] it was 8.3 µg/mL (≈ 8.96 µM); against C. auris [DSM 21092] it was 31.3 µg/mL (≈ 33.8 µM). The “inhibition of C. auris biofilm formation compared to solvent control (= 0%)” value was “/ ((/) no activity)” in the experiment on C. auris biofilm (2 µg/mL); 60 ±10% in the experiment on C. auris biofilm (3.9 µg/mL); 42 ±15% in the experiment with C. auris biofilm (7.8 µg/mL); 47 ±2% in the experiment on C. auris biofilm (15.6 µg/mL); 50 ±10% in the experiment with C. auris biofilm (31.3 µg/mL); 53 ±8% in the experiment with C. auris biofilm (62.5 µg/mL). Further, the results for the “inhibition of C. auris biofilm formation compared to solvent control (= 0%)” value with C. auris biofilm (125 µg/mL) and with C. auris biofilm (250 µg/mL) were 45 ±10% and 56 ±2%, respectively.
On to `CC(=O)OC/C=C/C1=CC2=C(CO1)C(=O)[C@@](C)(OC(=O)c1c(C)cc(O)cc1O)C(=O)/C2=C\C=C\C1=CC2=C(CO1)C(=O)[C@@](C)(OC(=O)c1c(C)cc(O)cc1O)[C@@H](O)C2` [Rut B, rutilin B], for which the minimal inhibitory concentration (MIC) entry (with C. albicans [DSM 1665]; in experiment [1]; with C. albicans [DSM 11225]; against C. auris [DSM 21092]) was “no antimicrobial activity” in each case. Moreover, the “effect on formation of C. auris biofilms” value in the experiment with C. auris biofilm is “did not affect the formation”.

Values taken from PMC10381533, “Inhibitory Effects of the Fungal Pigment Rubiginosin C on Hyphal and Biofilm Formation in Candida albicans and Candida auris” (Journal of Fungi, 2023).
